Laboratory results reported in US20260217701A1, “SELECTIVE BET INHIBITORS AND USES THEREOF” (Tay Therapeutics Limited, priority 2022, published 2026).
Like-named read-outs stand apart in the source and are kept apart here.

Assay: Rat PK study #3 (ABBV-744 IV 1 mg/kg and PO 5 mg/kg)
Assay type: in vivo, SD rats
Conditions: male, Sprague-Dawley, rat, plasma, SD rats, DMSO/PEG-400/Milli-Q water formulation; for C0: read-out: C0; for MRT inf: read-out: MRTInf_obs; for Tmax: read-out: Tmax
Method: For the third rat pharmacokinetic study, the pharmacokinetics of ABBV-744 were assessed in male SD rats for comparison to Compound A. ABBV-744 was prepared in a formulation of 5% DMSO, 40% PEG-400, and 55% Milli-Q water (see Table 2D for formulation) and delivered to animals orally (PO) at a dose of 5 mg/kg, or intravenously (IV) at a dose of 1 mg/kg. Animals in each group (n=3) were then monitored over a 24-hour period.
Blood samples (~0.2 mL) were collected according to a schedule (IV administration: 0.033, 0.083, 0.25, 0.5, 1, 2, 4, and 8 h following the initial dosing; PO administration: 0.083, 0.25, 0.5, 1, 2, 4, 8, and 24 h following the initial dosing) by jugular vein by cannulation except for the dosing vein (for IV group), and EDTA-K2 was used as anticoagulant. Within 30 minutes of collection, the samples were centrifuged at approximately 4000 times g-force for 5 minutes at 4° C. to obtain blood plasma. The plasma samples were immediately divided into two aliquots (~75 µL each), transferred to a cryogenic vial, and stored in a freezer at −75±15° C. prior to analysis.
The concentration of ABBV-744 in plasma samples was determined by liquid chromatography-mass spectrometry (LC-MS/MS) using a Shimadzu HPLC(DGU-405; LC-40D XS CN; SIL-40C XSCN; Plate Changer CN; CTO-40C CN; and CBM-40 CN) and an AB API 5500+LC/MS/MS instrument. Samples were analyzed on an Agilent Poroshell Bonus RP 2.7 μm (50×2.1 mm) column. Solution A in the mobile phase was 95% water (0.1% formic acid) and solution B was 95% acetonitrile in water (0.1% formic acid), injection volume was 6 μL, and flow rate was 0.6 mL/min.
To prepare samples for analysis, serial concentrations were prepared by diluting the stock solution of analyte with a 50% acetonitrile in water solution. 5 μL working solutions (5, 10, 20, 50, 100, 500, 1000, 5000, and 10000 ng/mL) were added to 50 μL of the blank SD rat plasma to achieve calibration standards of ~0.5 to 1000 ng/ml (0.5, 1, 2, 5, 10, 50, 100, 500, and 1000 ng/ml) in a total volume of 55 μL. Five quality control samples at 1 ng/ml, 2 ng/ml, 5 ng/ml, 50 ng/mL, and 800 ng/ml for plasma were prepared independently of those used for the calibration curves. These QC samples were prepared on the day of analysis in the same way as calibration standards.
55 μL of standards, 55 μL of QC samples and 55 μL of unknown samples (50 μL of unknown rat plasma with 5 µL of blank solution) were added to 200 µL of acetonitrile containing IS mixture (verapamil) for precipitating protein respectively. The samples were then vortexed for 30 s. After centrifugation at 4° C., 3900 rpm for 15 min, the supernatant was diluted 3 times with water. 6 μL of diluted supernatant was injected into the LC/MS/MS system for quantitative analysis.

[1] = iv, 1 mg/kg, IV 1 mg/kg, individual animals
[2] = iv, 1 mg/kg, IV 1 mg/kg, mean of 3 animals
[3] = po, 5 mg/kg, PO 5 mg/kg, mean of 3 animals

Work on `CCNC(=O)c1cc2c(-c3cc(C(C)(C)O)ccc3Oc3c(C)cc(F)cc3C)cn(C)c(=O)c2[nH]1` [ABBV-744] yielded a concentration at 0.083 h [1] of 351 ng/mL, a concentration at 0.083 h [2] of 337 ng/mL and a concentration at 0.25 h [1] of 248 ng/mL. For the same compound, the concentration at 0.25 h [2] was 268 ng/mL, the concentration at 0.5 h [1] was 191 ng/mL and the concentration at 0.5 h [2] was 203 ng/mL. For the same compound, the concentration at 1 h [1] was 158 ng/mL, the concentration at 1 h [2] was 154 ng/mL and the concentration at 2 h [1] was 103 ng/mL. The concentration at 2 h [2] was 110 ng/mL, the concentration at 4 h [1] was 48 ng/mL and the concentration at 4 h [2] was 52.9 ng/mL. The concentration at 8 h [1] was 12.6 ng/mL, the concentration at 8 h [2] was 15.3 ng/mL and the AUC(0-inf) [1] was 669 ng·h/mL. The AUC(0-t) [1] was 633 ng·h/mL, the half-life [1] was 1.99 h and the C0 [1] was 580 ng/mL. The MRT inf [1] was 2.47 h, the AUC(0-inf) [2] was 716 ng·h/mL and the AUC(0-t) [2] was 668 ng·h/mL. It also gave a half-life [2] of 2.12 h, a C0 [2] of 613 ng/mL and an MRT inf [2] of 2.65 h. For the same compound, the concentration at 0.083 h [3] was 1.61 ng/mL, the concentration at 0.25 h [3] was 19.3 ng/mL and the concentration at 0.5 h [3] was 43 ng/mL. The concentration at 1 h [3] was 59 ng/mL, the concentration at 2 h [3] was 89 ng/mL and the concentration at 4 h [3] was 127 ng/mL. The concentration at 8 h [3] was 113 ng/mL, the concentration at 24 h (po, 5 mg/kg, PO 5 mg/kg, 24 h, mean of 3 animals) was 2.17 ng/mL and the Tmax (po, 5 mg/kg, PO 5 mg/kg, individual animals) was 8 h. The AUC(0-t) [3] was 1730 ng·h/mL, the Cmax (po, 5 mg/kg, PO 5 mg/kg, mean of 3 animals, read-out: Cmax) was 132 ng/mL and the Tmax [3] was 5.33 h.
